Data set [1] can be described thus: Dark toxicity against human MCF7 cells assessed as growth inhibition at 0.1 uM after 24 hrs by SRB assay relative to control. It is filed as cell-based. The settings on record: read-out: GI. (In SRB staining, fixed cells bind dye roughly in proportion to their protein.)
A short description of data set [2]: Dark toxicity against human MCF7 cells assessed as growth inhibition after 24 hrs by SRB assay. It is filed as cell-based.
The nature of data set [3]: Dark toxicity against human HeLa cells assessed as growth inhibition after 24 hrs by SRB assay. Format: cell-based.
Data set [4] is described as follows: Dark toxicity against human NCI-H460 cells assessed as growth inhibition after 24 hrs by SRB assay. Format: cell-based.
Data set [5] is described as follows: Dark toxicity against human NCI-H460 cells assessed as growth inhibition at 0.1 uM after 24 hrs by SRB assay relative to control. It is filed as cell-based. The settings on record: read-out: GI.
Data set [6] is described as follows: Dark toxicity against porcine PLP2 cells assessed as growth inhibition at 0.1 uM after 24 hrs by SRB assay relative to control. The settings on record: Sus scrofa, read-out: GI.
A further data set concerns MCF7. Put plainly: Photocytotoxicity against human MCF7 cells assessed as growth inhibition preincubated for 24 hrs followed by irradiation with light at 23 to 24 uW/cm'2 for 30 mins measured after 24 hrs by SRB assay. Format: functional. The note with it: MCF7, light or radiation study.
The nature of data set [7]: Dark toxicity against human HeLa cells assessed as growth inhibition at 0.1 uM after 24 hrs by SRB assay relative to control. It is filed as cell-based. The note with it: read-out: GI.
A further data set concerns HepG2. The experiment in a line: Photocytotoxicity against human HepG2 cells assessed as growth inhibition preincubated for 24 hrs followed by irradiation with light at 23 to 24 uW/cm'2 for 30 mins measured after 24 hrs by SRB assay. Format: functional. The note with it: HepG2, light or radiation study.
A short description of data set [8]: Dark toxicity against human HepG2 cells assessed as growth inhibition after 24 hrs by SRB assay. Format: cell-based.
Data set [9] is described as follows: Dark toxicity against human HepG2 cells assessed as growth inhibition at 0.1 uM after 24 hrs by SRB assay relative to control. It is filed as cell-based. The note with it: read-out: GI.
A short description of data set [10]: Photocytotoxicity against porcine PLP2 cells assessed as growth inhibition preincubated for 24 hrs followed by irradiation with light at 23 to 24 uW/cm'2 for 30 mins measured after 24 hrs by SRB assay. The settings on record: Sus scrofa.
A further data set relates to HeLa. Put plainly: Photocytotoxicity against human HeLa cells assessed as growth inhibition preincubated for 24 hrs followed by irradiation with light at 23 to 24 uW/cm'2 for 30 mins measured after 24 hrs by SRB assay. It is filed as functional. The settings on record: light or radiation study.
A short description of data set [11]: Dark toxicity against porcine PLP2 cells assessed as growth inhibition after 24 hrs by SRB assay. The note with it: Sus scrofa.
The next data set relates to NCI-H460. Put plainly: Photocytotoxicity against human NCI-H460 cells assessed as growth inhibition preincubated for 24 hrs followed by irradiation with light at 23 to 24 uW/cm'2 for 30 mins measured after 24 hrs by SRB assay. Format: functional. The settings on record: NCI-H460, light or radiation study.

Molecules are shown by their SMILES.

We go through 5 molecules from ChEMBL document CHEMBL4043173, “Aminosquaraines as potential photodynamic agents: Synthesis and evaluation of in vitro cytotoxicity” (Bioorg Med Chem Lett, 2017).

As usually defined, the GI50 is the concentration giving 50% growth inhibition. Consider `CCN1/C(=C/C2=C(N(C)CCO)C(=C/c3sc4ccccc4[n+]3CC)/C2=O)Sc2ccccc21`, for which the inhibition at 24 h, 0.1 µM in data set [1], in data set [5], in data set [6], in data set [7] and in [9] was < 20% throughout. Besides, the concentration for 50% growth inhibition (GI50) at 24 h was 0.737 µM in [2]; 2.64 µM in data set [3]; 0.767 µM in data set [4]; 7.54 µM in [8]; 0.471 µM in [10]; 0.717 µM in data set [11]. Besides, the GI50 came out at 0.239 µM in the data set on MCF7, 0.271 µM with HepG2, 0.273 µM in the data set with HeLa and 0.455 µM in the data set with NCI-H460.
On to `CCN1/C(=C/C2=C(N(CCO)CCO)C(=C/c3sc4ccccc4[n+]3CC)/C2=O)Sc2ccccc21`, for which the inhibition at 24 h, 0.1 µM in data set [1], in data set [5], in data set [6], in [7] and in data set [9] was < 20% each time. The GI50 at 24 h in data set [2] is 5.34 µM; in [3] it was > 10 µM; in [4], 0.94 µM; in data set [8] it was 4.49 µM; in [10], 0.34 µM; in data set [11] it was 0.621 µM. Besides, the GI50 worked out at 0.257 µM with MCF7, 0.722 µM with HepG2, 0.088 µM in the data set with HeLa and 0.404 µM with NCI-H460.
Regarding `CCN1/C(=C/C2=C(N)C(=C/c3sc4ccccc4[n+]3CC)/C2=O)Sc2ccccc21`, the inhibition at 24 h, 0.1 µM in data set [1], in data set [5], in data set [6], in data set [7] and in data set [9] was < 20% in each case. For the same molecule, the GI50 at 24 h is > 10 µM in data set [2]; > 10 µM in data set [3]; > 10 µM in [4]; 4.57 µM in data set [8]; 4.98 µM in data set [10]; > 10 µM in data set [11]. The GI50 came out at 0.918 µM in the data set with MCF7, 0.665 µM in the data set with HepG2, 0.288 µM with HeLa and 8.35 µM in the data set with NCI-H460.
In the case of `CCN1/C(=C/C2=C(NCCO)C(=C/c3sc4ccccc4[n+]3CC)/C2=O)Sc2ccccc21`, the inhibition at 24 h, 0.1 µM in [1], in data set [5], in data set [6], in data set [7] and in data set [9] was < 20% in each case. Further, the GI50 at 24 h in data set [2] is 7.36 µM; in [3], > 10 µM; in [4] it was 8.82 µM; in data set [8] it was 7.83 µM; in data set [10], 0.385 µM; in data set [11] it was 3.73 µM. Moreover, the GI50 in the data set on MCF7 came out at 0.224 µM; in the data set on HepG2 it was 0.11 µM; in the data set on HeLa, 0.097 µM; in the data set on NCI-H460, 0.44 µM.
In the case of `CCN1/C(=C/C2=C(NC)C(=C/c3sc4ccccc4[n+]3CC)/C2=O)Sc2ccccc21`, the inhibition at 24 h, 0.1 µM in data set [1], in data set [5], in data set [6], in data set [7] and in data set [9] was < 20% throughout. The GI50 at 24 h in [2] was determined as 0.576 µM; in data set [3], 2.22 µM; in data set [4] it was 0.507 µM; in [8], 7.08 µM; in [10], 0.126 µM; in data set [11], 0.41 µM. The concentration for 50% growth inhibition (GI50) was 0.054 µM in the data set with MCF7, 0.078 µM in the data set with HepG2, 0.071 µM with HeLa and 0.171 µM in the data set with NCI-H460.
